Experimental data published in ChEMBL document CHEMBL1201862, “PubChem BioAssay data set” (2004).
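Assay format: 96-well plates, 48-hour exposure. GI50 marks 50% less growth.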 The source made the active and inactive calls. No stated cut-off is given here; in the data, active = GI50 up to about 1.1 µM and inactive = higher. Where a SMILES comes first, the peptide text is derived from it. Bridges are numbered along the chain shown (N, C = ends). The star is where a group is joined. Cbz = O=C(OCc1ccccc1)*

Legend:
Experiment in all cases: inhibition of tumour cell growth, NCI panel, 48 h
[1] = system: 786-0
[2] = system: A498
[3] = system: A549
[4] = system: ACHN
[5] = system: CAKI-1
[6] = system: CCRF-CEM
[7] = system: COLO 205
[8] = system: DU-145
[9] = system: EKVX
[10] = system: HCC 2998
[11] = system: HCT-116
[12] = system: HCT-15
[13] = system: HL-60
[14] = system: HOP-62
[15] = system: HOP-92
[16] = system: HT-29
[17] = system: Hs-578T
[18] = system: IGROV-1
[19] = system: K562
[20] = system: KM12
[21] = system: LOX IMVI
[22] = system: M14
[23] = system: MDA-MB-231
[24] = system: MDA-MB-435
[25] = system: MDA-N
[26] = system: MOLT-4
[27] = system: Malme-3M
[28] = system: NCI-H226
[29] = system: NCI-H23
[30] = system: NCI-H460
[31] = system: NCI-H522
[32] = system: NCI/ADR-RES
[33] = system: OVCAR-3
[34] = system: OVCAR-4
[35] = system: OVCAR-5
[36] = system: OVCAR-8
[37] = system: PC-3
[38] = system: RPMI-8226
[39] = system: RXF 393
[40] = system: SF-268
[41] = system: SF-295
[42] = system: SF-539
[43] = system: SK-MEL-28
[44] = system: SK-MEL-2
[45] = system: SK-MEL-5
[46] = system: SK-OV-3
[47] = system: SN12C
[48] = system: SNB-19
[49] = system: SNB-75
[50] = system: SR
[51] = system: SW-620
[52] = system: T47D
[53] = system: TK-10
[54] = system: U-251
[55] = system: UACC-257
[56] = system: UACC-62
[57] = system: UO-31
[58] = system: MCF7

Structure (SMILES): CCCCC1c2c([nH]c3ccccc23)C2C(=O)N(c3ccc(OC)cc3)C(=O)C2C1CCC (stereo unspecified)
- GI50 [1]: 4.39 µM (inactive)
- GI50 [2]: 3.4 µM (inactive)
- GI50 [3]: 5.13 µM (inactive)
- GI50 [4]: 5.7 µM (inactive)
- GI50 [5]: 1.23 µM (inactive)
- GI50 [6]: 3.66 µM (inactive)
- GI50 [7]: 2.59 µM (inactive)
- GI50 [8]: 5.12 µM (inactive)
- GI50 [9]: 3.56 µM (inactive)
- GI50 [10]: 3.47 µM (inactive)
- GI50 [11]: 3.01 µM (inactive)
- GI50 [12]: 3.6 µM
- GI50 [13]: 2.96 µM (inactive)
- GI50 [14]: 3.69 µM (inactive)
- GI50 [15]: 3.03 µM (inactive)
- GI50 [16]: 3.13 µM (inactive)
- GI50 [17]: 1.87 µM (inactive)
- GI50 [18]: 4.56 µM (inactive)
- GI50 [19]: 3.29 µM (inactive)
- GI50 [20]: 2.1 µM (inactive)
- GI50 [21]: > 10 µM (inactive)
- GI50 [22]: 3.06 µM (inactive)
- GI50 [23]: 2.58 µM (inactive)
- GI50 [24]: 2.24 µM (inactive)
- GI50 [25]: 3.02 µM (inactive)
- GI50 [26]: 2.74 µM (inactive)
- GI50 [27]: 4.44 µM (inactive)
- GI50 [28]: 5.02 µM (inactive)
- GI50 [29]: 3.89 µM (inactive)
- GI50 [30]: 4.19 µM (inactive)
- GI50 [31]: 6.28 µM (inactive)
- GI50 [32]: 2.96 µM (inactive)
- GI50 [33]: 3.36 µM (inactive)
- GI50 [34]: 4.82 µM (inactive)
- GI50 [35]: > 10 µM (inactive)
- GI50 [36]: 2.65 µM (inactive)
- GI50 [37]: 2.6 µM (inactive)
- GI50 [38]: 4.61 µM (inactive)
- GI50 [39]: 3.39 µM (inactive)
- GI50 [40]: 4.35 µM (inactive)
- GI50 [41]: > 10 µM (inactive)
- GI50 [42]: 2.24 µM (inactive)
- GI50 [43]: 5.4 µM (inactive)
- GI50 [44]: 2.39 µM (inactive)
- GI50 [45]: 5.38 µM (inactive)
- GI50 [46]: > 10 µM (inactive)
- GI50 [47]: 2.18 µM (inactive)
- GI50 [48]: 8.59 µM (inactive)
- GI50 [49]: 2.55 µM (inactive)
- GI50 [50]: 4.75 µM (inactive)
- GI50 [51]: 3.95 µM (inactive)
- GI50 [52]: > 10 µM (inactive)
- GI50 [53]: 4.37 µM (inactive)
- GI50 [54]: 8.71 µM (inactive)
- GI50 [55]: 3.61 µM (inactive)
- GI50 [56]: 2.29 µM (inactive)
- GI50 [57]: 4.45 µM (inactive)

Structure (SMILES): c1ccc2c(Nc3ccc(Oc4ccc(Nc5c6ccccc6nc6ccccc56)cc4)cc3)c3ccccc3nc2c1
- GI50 [1]: 0.0504 µM (active)
- GI50 [2]: 1.85 µM (inactive)
- GI50 [5]: 1.63 µM (inactive)
- GI50 [7]: 0.815 µM (active)
- GI50 [8]: 0.277 µM (active)
- GI50 [9]: 1.5 µM (inactive)
- GI50 [10]: < 0.01 µM (active)
- GI50 [13]: 0.547 µM (active)
- GI50 [15]: 1.83 µM (inactive)
- GI50 [17]: 2.21 µM (inactive)
- GI50 [21]: 0.792 µM (active)
- GI50 [22]: 0.0925 µM (active)
- GI50 [58]: 0.0942 µM (active)
- GI50 [24]: 0.0647 µM (active)
- GI50 [27]: 1.73 µM (inactive)
- GI50 [28]: 1.72 µM (inactive)
- GI50 [29]: 0.181 µM (active)
- GI50 [30]: 0.618 µM (active)
- GI50 [31]: 0.665 µM (active)
- GI50 [32]: 0.0655 µM (active)
- GI50 [33]: 0.0659 µM (active)
- GI50 [34]: 0.0668 µM (active)
- GI50 [35]: 0.528 µM (active)
- GI50 [36]: 0.139 µM (active)
- GI50 [37]: 1.6 µM (inactive)
- GI50 [39]: 2.4 µM (inactive)
- GI50 [40]: 1.57 µM (inactive)
- GI50 [41]: 1.67 µM (inactive)
- GI50 [43]: 0.102 µM (active)
- GI50 [44]: 1.96 µM (inactive)
- GI50 [45]: 1.57 µM (inactive)
- GI50 [46]: 1.72 µM (inactive)
- GI50 [48]: 0.299 µM (active)
- GI50 [49]: 0.436 µM (active)
- GI50 [51]: 0.0649 µM (active)
- GI50 [52]: 0.556 µM (active)
- GI50 [53]: 1.19 µM (inactive)

Structure (SMILES): COC(=O)C1CCCCNC(=O)CCC(NC(=O)OCc2ccccc2)C(=O)N1 (stereo not drawn) (Cbz-Glu-Lys-OMe; lactam 1-2; configuration not given here)
- GI50 [1]: 43.6 µM (inactive)
- GI50 [2]: > 100 µM (inactive)
- GI50 [3]: > 100 µM (inactive)
- GI50 [4]: > 100 µM (inactive)
- GI50 [5]: > 100 µM (inactive)
- GI50 [6]: > 100 µM (inactive)
- GI50 [7]: > 100 µM (inactive)
- GI50 [8]: > 100 µM (inactive)
- GI50 [9]: > 100 µM (inactive)
- GI50 [11]: > 100 µM (inactive)
- GI50 [12]: > 100 µM
- GI50 [13]: > 100 µM (inactive)
- GI50 [14]: 38.7 µM (inactive)
- GI50 [15]: 43.6 µM (inactive)
- GI50 [16]: > 100 µM (inactive)
- GI50 [17]: 65.9 µM (inactive)
- GI50 [18]: > 100 µM (inactive)
- GI50 [19]: > 100 µM (inactive)
- GI50 [20]: > 100 µM (inactive)
- GI50 [21]: > 100 µM (inactive)
- GI50 [22]: > 100 µM (inactive)
- GI50 [58]: > 100 µM (inactive)
- GI50 [23]: 62.7 µM (inactive)
- GI50 [24]: > 100 µM (inactive)
- GI50 [25]: > 100 µM (inactive)
- GI50 [26]: > 100 µM (inactive)
- GI50 [27]: > 100 µM (inactive)
- GI50 [28]: > 100 µM (inactive)
- GI50 [29]: > 100 µM (inactive)
- GI50 [30]: > 100 µM (inactive)
- GI50 [31]: > 100 µM (inactive)
- GI50 [32]: > 100 µM (inactive)
- GI50 [33]: > 100 µM (inactive)
- GI50 [34]: > 100 µM (inactive)
- GI50 [35]: > 100 µM (inactive)
- GI50 [36]: > 100 µM (inactive)
- GI50 [37]: > 100 µM (inactive)
- GI50 [38]: > 100 µM (inactive)
- GI50 [39]: 25.5 µM (inactive)
- GI50 [40]: 56.1 µM (inactive)
- GI50 [41]: 50.1 µM (inactive)
- GI50 [42]: > 100 µM (inactive)
- GI50 [43]: > 100 µM (inactive)
- GI50 [44]: > 100 µM (inactive)
- GI50 [45]: > 100 µM (inactive)
- GI50 [46]: 56.1 µM (inactive)
- GI50 [47]: > 100 µM (inactive)
- GI50 [48]: 66.7 µM (inactive)
- GI50 [49]: > 100 µM (inactive)
- GI50 [50]: > 100 µM (inactive)
- GI50 [51]: > 100 µM (inactive)
- GI50 [52]: > 100 µM (inactive)
- GI50 [53]: > 100 µM (inactive)
- GI50 [54]: 39.3 µM (inactive)
- GI50 [55]: > 100 µM (inactive)
- GI50 [56]: > 100 µM (inactive)
- GI50 [57]: > 100 µM (inactive)
